In PubChem BioAssay (NCI):
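Cells were grown in 96-well plates and exposed to each compound for 48 hours at five concentrations; endpoints were interpolated linearly between bracketing concentrations, or set to the highest concentration if not reached. GI50 = concentration required for 50% inhibition of growth. TGI denotes the concentration required for complete inhibition of growth.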

Assays:
Experiment in all cases: NCI anticancer screen, dose series, 48 h
[1] = tested on: PC-3 prostate
[2] = tested on: MDA-MB-435
[3] = tested on: KM12 colon
[4] = tested on: UACC-62 melanoma
[5] = tested on: HCC-2998 colon
[6] = tested on: SF-268 CNS
[7] = tested on: HT29 colon
[8] = tested on: CCRF-CEM leukemia
[9] = tested on: DU-145 prostate
[10] = tested on: MDA-MB-231 breast
[11] = tested on: SNB-75 CNS
[12] = tested on: SK-MEL-5 melanoma
[13] = tested on: SF-539 CNS
[14] = tested on: HCT-116 colon
[15] = tested on: CAKI-1 renal
[16] = tested on: SNB-19 CNS
[17] = tested on: OVCAR-4 ovarian
[18] = tested on: COLO 205 colon
[19] = tested on: SF-295 CNS
[20] = tested on: ACHN renal
[21] = tested on: U251 CNS
[22] = tested on: BT-549 breast
[23] = tested on: NCI-H226 lung
[24] = tested on: SK-MEL-28 melanoma
[25] = tested on: MCF7 breast
[26] = tested on: NCI-H23 lung
[27] = tested on: SK-MEL-2 melanoma
[28] = tested on: OVCAR-5 ovarian

## COCCOCCOCCOCCOc1ccc2c(c1)C(=O)c1nc3ncccc3c(=O)n1-2
[1]
  GI50: 1670 nM
  TGI: 16500 nM
[2]
  GI50: 188 nM
  TGI: 364 nM
[3]
  GI50: 1220 nM
  TGI: 2710 nM
[4]
  GI50: 371 nM
  TGI: 1070 nM
[5]
  GI50: 1320 nM
  TGI: 2790 nM
[6]
  GI50: 1540 nM
  TGI: 5170 nM
[7]
  GI50: 1470 nM
  TGI: 3700 nM
[8]
  GI50: 2430 nM
  TGI: 7400 nM
[9]
  GI50: 540 nM
  TGI: 1790 nM
[10]
  GI50: 2930 nM
  TGI: 52000 nM
[11]
  GI50: 2070 nM
  TGI: 3650 nM
[12]
  GI50: 158 nM
  TGI: 312 nM
[13]
  GI50: 551 nM
  TGI: 1710 nM
[14]
  GI50: 1560 nM
  TGI: 4460 nM
[15]
  GI50: 663 nM
  TGI: 2020 nM
[16]
  GI50: 1280 nM
  TGI: 2640 nM
[17]
  GI50: 1740 nM
  TGI: 4230 nM
[18]
  GI50: 1880 nM
  TGI: 3350 nM
[19]
  GI50: 351 nM
  TGI: 1400 nM
[20]
  GI50: 2640 nM
  TGI: 8190 nM
[21]
  GI50: 1290 nM
  TGI: 2560 nM
[22]
  GI50: 1100 nM
  TGI: 2300 nM
[23]
  GI50: 1650 nM
  TGI: 3310 nM
[24]
  GI50: 765 nM
  TGI: 2030 nM
[25]
  GI50: 799 nM
  TGI: 2200 nM
[26]
  GI50: 279 nM
  TGI: 1180 nM
[27]
  GI50: 2420 nM
  TGI: 6210 nM
[28]
  GI50: 1780 nM
  TGI: 3160 nM
